Consider nine substances from patent US9291621B2, “AGER-peptides and use thereof” (AbbVie Deutschland GmbH & Co. KG, priority 2005, dated 2016).

Assay [1] relates to hippocampal sections (CA1 region). Nature of the assay: Excitatory synaptic transmission and long-term potentiation in hippocampal sections. In kind it is cell-based, male Wistar rats. The following applies: for effect on short-term and long-term potentiation: theta burst stimulation, p=0.016 (NtermR31), p=0.794 (scraNtermR31), repeated measures ANOVA. The method, then: 400 μm-thick transverse hippocampal sections from 7-8-week-old male Wistar rats (Harlan Winkelmann, Bochum, Germany) were prepared using a tissue chopper and equilibrated for at least 1 hour at 33° C. in Carbogen-gassed artificial cerebrospinal fluid (aCSF) of the following composition: NaCl 124 mM; KCl 4.9 mM; MgSO4 1.3 mM; CaCl2 2.5 mM; KH2PO4 1.2 mM; NaHCO3 25.6 mM; glucose 10 mM; pH 7.4. Recordings were made from the section immersed in Carbogen-gassed artificial cerebrospinal fluid (aCSF) of the same composition.
Stimulation of the Schaffer collaterals took place in the stratum radiatum using a monopolar stimulating electrode with biphasic pulse (voltage range 1-5 V). Excitatory post-synaptic potentials (EPSPs) were recorded in the stratum radiatum using aCSF-filled glass electrodes against a chlorinated silver reference electrode (bath). These reflect in particular the strength of the glutamatergic synaptic transmission.
The values were determined from the gradient of the field EPSPs recorded every 5 min for a period of 120 minutes before and 120 minutes after LTP induction. LTP was induced by so-called theta burst stimulation (4×2 pulses at an interval of 200 ms with a double-pulse interval of 10 ms). […]

Assay [2] deals with T1, sRAGE-6×HIS (amino acids 23-352, NP_001127) (Homo sapiens, UniProt Q15109).
T1 construct: fusion protein sRAGE-6×HIS (amino acids 23-352, NP_001127); made in house
T1 sequence (Q15109 with tags, fused parts or gaps): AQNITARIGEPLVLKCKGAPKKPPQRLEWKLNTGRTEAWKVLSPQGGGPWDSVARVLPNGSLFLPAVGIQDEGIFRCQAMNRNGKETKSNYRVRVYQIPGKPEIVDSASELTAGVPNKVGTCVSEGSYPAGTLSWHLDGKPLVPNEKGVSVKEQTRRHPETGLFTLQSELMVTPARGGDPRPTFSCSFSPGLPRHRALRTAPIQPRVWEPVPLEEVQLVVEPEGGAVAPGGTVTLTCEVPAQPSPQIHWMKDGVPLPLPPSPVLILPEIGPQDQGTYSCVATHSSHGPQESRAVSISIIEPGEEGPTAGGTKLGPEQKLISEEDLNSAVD
As to the kind of experiment: AlphaScreen measurement of peptide binding to sRAGE. The conditions noted are these: for binding to the receptor (AlphaScreen): biotinylated control peptides 0, 10, 30, 100, 300 nM. The method, then: The entire homogeneous assay was carried out in 25 mM HEPES, 100 mM NaCl of pH 7.4 and 0.1% BSA in a volume of 20 μl.
The individual components were brought together in a defined time sequence. […] The various amounts of peptide were then added in order, after a further 30 minutes, to add the donor beads. After a further 60 minutes, the fluorescence was measured in the AlphaQuest instrument from Perkin-Elmer with a time lag of one second. Each measured point was determined as triplicate. The analysis and graphical workup of the results took place with the GraphPrism 4.0 software package.
The binding to the RAGE receptor was measured by employing the AlphaScreen™ System (order number: 6760610M) from Perkin Elmer (Shelton, Conn., USA).
The assay was carried out by the manufacturer's protocol in 25 mM HEPES, 100 mM NaCl of pH 7.4 and 0.1% BSA in a volume of 20 μl. The mixture comprised 2.5 ng/μl of the fusion protein sRAGE-6×HIS (amino acids 23-352, NP_001127), 20 ng/μl anti-HIS acceptor beads, 20 ng/μl streptavidin donor beads and the biotinylated peptides in concentrations of 0, 10, 30, 100, and 300 nM. The peptides, with the exception of AR 1-42 oligomers, were heated at 50° C. for 10 minutes immediately before the test in order to loosen possible aggregations.
The individual components were brought together in a defined time sequence. […] The various amounts of peptide were then added in order, after a further 30 minutes, to add the donor beads. After a further 60 minutes, the fluorescence was measured in the AlphaQuest instrument from Perkin-Elmer with a time lag of one second. Each measured point was determined as triplicate. The evaluation and graphical workup of the results took place with the GraphPrism 4.0 software package.
In general terms: Bead proximity is the source of the signal in Alpha formats.

The target in assay [3] is sRAGE/Aβ globulomer interaction (Homo sapiens, UniProt P05067). The conditions noted are these: for inhibition of Aβ oligomer binding to sRAGE: increasing peptide concentrations, Aβ 1/5 biotin globulomer 800 nM. The method, then: The HTRF donor and acceptor components, Anti6HIS europium cryptate (CIS Bio catalogue number: 61HISKLA; 500 wells/13 μg) and streptavidin XL-665 (CIS Bio catalogue number: 61HISAXLA, 500 wells/250 μg) were each dissolved in 250 μl of dd H2O, Starting from these stock solutions, 1:50 working dilutions were prepared with a final concentration of 7.4 nM Anti6His cryptates and 121.2 nM streptavidin XL-665 in PBS, 0.1% BSA, pH 7.4.
Sequence of sRAGE/Aβ globulomer interaction (P05067 672-713 limits assumed): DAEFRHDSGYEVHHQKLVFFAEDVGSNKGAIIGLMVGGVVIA
Working solutions of peptides 6 and 7 were prepared with concentrations of 200 μM, 100 μM, 50 μM, 25 μM, 12.5 μM, 6.25 μM, 3.125 μM, 1.56 μM and 0.78 μM.
To carry out the tests, initially 4 μl of the working solutions of each of peptides 6 and 7, and of a buffer control, were mixed with 4 μl of a 4 μM stock solution of the Aβ 1/5 biotin globulomer (final assay concentration 800 nM) and incubated at room temperature for one hour. The A beta 1/5 biotin globulomer concentration indicated here is based on the Aβ 1-42 monomers which were used to prepare the globulomers.
2 μl portions of the 7.4 nM Anti6His cryptates and of the 121.2 nM streptavidin solution described above were added in order then to incubate this mixture, now at 4° C., for a further two hours. After addition of 4 μl of a 2M KF stock solution, the complete mixture was measured in a BMG Pherastar fluorescence measuring instrument (BMG Labtech GmbH, Offenburg, Germany) in HTRF mode. Separate measurements without peptide were carried out for the max-signal curve. For the background curve, measurements were used with in each case only the AntiGHIS cryptates and strepavidin XL solutions. The calculated % DeltaF values were transferred into GraphPad Prism 4 (GraphPad Software, San Diego, USA) and evaluated. The concentrations indicated in the graphs are based on the final concentration of the complete 20 μl mixture.

For assay [4], the system named is HEK293 RhoA/NgR/p75 cells. Nature of the assay: Functional actin cytoskeletal rearrangement (ACR) assay. The format is cell-based, human. The following applies: preincubation 0.2, 1, 5 μM; stimulation with AP-Nogo-66 (9.6 μg/ml). The method, then: 1×10^4 cells were […] into microtiter plates with 96 wells two days before the stimulation. The cells were stimulated with a suitable reagent (e.g. LPA or AP-Nogo-66) in culture medium (RPMI-Glutamax) comprising 5% FCS. After a stimulation period of 5 to 10 minutes, the activation was stopped with cold PBS. The cells were fixed with 3-4% strength paraformaldehyde solution, permeabilized with PBS comprising 0.2% Triton X-100, and incubated with phalloidin Alexa 568 or 488 for 30-45 minutes. Incubation with DAPI additionally took place for 5 minutes for nuclear staining. The cells were visualized with the aid of an epifluorescence microscope (Axiovert 25).
1×10^4 Hek293 RhoA/NgR/p75 cells were transferred into MTP Biocoat microtiter plates with 96 wells two days before the actual start of the test. […] The cells were stimulated with the NgR ligand AP-Nogo-66 (9.6 μg/ml) in culture medium comprising 5% FCS. An unstimulated control mixture (without AP-Nogo66) was prepared for each series of tests. After a stimulation period of 5 to 10 minutes, the activation was stopped with cold PBS. […] were recorded with a cooled CCD camera from Zeiss, and the percentage content of contracted cells, based on the total cell count, was found.

The mark [5] stands for this setting: biotinylated control peptides 0-300 nM.

On to “APLACPRELIKGKWEVKPKRNPKNQLTIGQL [ScraNtermR31]”, for which, in assay [1] (500 nM), the “effect on short-term and long-term potentiation” value is recorded as “no effect”.
As for E T E D S D T [Minus7], the “binding to the receptor (AlphaScreen)” value in assay [2] is on record as “no bonding”.
As to F P V I P A L F W I V L M [Unpol13], the “binding to the receptor (AlphaScreen)” value in assay [2] is “no bonding”.
On the same count and under the same terms, the same measure for “F S R I R A T H W R V D G [AlterCharge1]”: “binding”.
In the case of GKPRAPKCLKPEQ [ScraNtermR13], in assay [2] (setting [5]), the “affinity to sRAGE compared with NtermR13” value is given as “same or slightly higher affinity” and the “maximum signal intensity in the test” value was “highest maximum signal intensity”.
Regarding “LPRHRALRTAPIQPRVWEPVPLEEVQLVVE [peptide 7]”, in assay [3], the “inhibitory activity, peptide 7 compared with peptide 6” value is listed as “more pronounced” and the “inhibition of Aβ oligomer binding to sRAGE” value was “Inhibition”.
As to “QNITARIGEPLVLKCKGAPKKPPQRLEWKLN [NtermR31]”, the “percentage content of contracted HEK cells” value in assay [4] is reported as “concentration-dependent reduction”. In assay [1] (500 nM), the input/output ratio entry is “unaffected”; the “effect on short-term and long-term potentiation” value is “distinctly suppresses”. In assay [1] (application for 90 minutes), the “effect on basal synaptic transmission” value was “no effect”.
As to R L K R G H A [Plus7], the “maximum signal intensity in the test” value in assay [2] (setting [5]) is recorded as “highest maximum signal intensity”.
Take “TLQSELMVTPARGGDPRPTFSCSFSPGLPR [peptide 6]”: the “inhibition of Aβ oligomer binding to sRAGE” value in assay [3] is listed as “Inhibition”.
